Measured values as given in patent publication US11339156B2, “3-(1H-pyrazol-4-yl)pyridine allosteric modulators of the M4 muscarinic acetylcholine receptor” (Merck Sharp & Dohme Corp., priority 2017, dated 2022).

The compounds below were run against T1, human M4 muscarinic acetylcholine receptor (Homo sapiens, UniProt P08173) (assay: human FLIPR-based M4 PAM assay (CHO-K1 cells with human M4 receptor and Gαqi5, calcium dye fluorescence)). Conditions: inflection point of 4 parameter logistic fit; acetylcholine added at 20% of maximum response; read-out: M4PAM IP.
T1 construct: expressed in transfected cells
T1 sequence (P08173 1-479): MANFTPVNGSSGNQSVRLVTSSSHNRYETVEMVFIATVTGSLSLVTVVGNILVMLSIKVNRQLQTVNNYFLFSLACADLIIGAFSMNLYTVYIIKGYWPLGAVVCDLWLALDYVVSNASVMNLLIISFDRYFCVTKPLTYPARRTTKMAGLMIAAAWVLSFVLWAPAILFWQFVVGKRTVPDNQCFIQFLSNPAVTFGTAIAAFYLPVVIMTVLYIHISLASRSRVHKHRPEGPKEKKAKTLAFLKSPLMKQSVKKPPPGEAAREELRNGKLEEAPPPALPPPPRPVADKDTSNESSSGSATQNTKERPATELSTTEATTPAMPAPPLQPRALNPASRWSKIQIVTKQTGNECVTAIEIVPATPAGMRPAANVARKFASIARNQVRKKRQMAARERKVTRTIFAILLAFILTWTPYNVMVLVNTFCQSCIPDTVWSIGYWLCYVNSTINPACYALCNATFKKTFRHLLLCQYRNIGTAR
Type: cell-based
Method in brief: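 CHO-K1 cells were loaded with calcium dye at 37 °C for ~1 h. Fluorescence (ex 470–495/em 515–575 nm) was read for 4 min after test compound at increasing concentrations, then 3.5 min after acetylcholine at an EC20; sometimes a third addition at EC70 followed. The value is the inflection point of a 4-parameter logistic fit.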

Which EC50 does the source give for `Cn1nnc2cc(-c3nc(C#N)ccc3-c3cnn(CC(C)(C)C)c3)ccc21` [Example 68, 5-[1-(2,2-dimethylpropyl)-1H-pyrazol-4-yl]-6-(1-methyl-1H-benzotriazol-5-yl)pyridine-2-carbonitrile] here?
The EC50 was 0.0558 µM.

For `Cc1ccc(-c2cnn(CC3(C)CCCCC3)c2)c(-c2ccc3cn[nH]c3c2)n1` [Example 3, 6-(6-methyl-3-{1-[(1-methylcyclohexyl)methyl]-1H-pyrazol-4-yl}pyridin-2-yl)-1H-indazole], which EC50 is on record?
Its EC50 is 0.0666 µM.

For `Cc1ccc(-c2cnn(CCC(C)(C)F)c2)c(-c2ccc3c(c2)C(=O)NC3)n1` [Example 10, 6-{3-[1-(3-fluoro-3-methylbutyl)-1H-pyrazol-4-yl]-6-methylpyridin-2-yl}-2,3-dihydro-1H-isoindol-1-one], which EC50 is on record?
The EC50 was 0.13 µM.

Which EC50 does the source give for `CCC(C)(C)Cn1cc(-c2ccc(C#N)nc2-c2ccn3ccnc3c2)cn1` [Example 91, 5-[1-(2,2-dimethylbutyl)-1H-pyrazol-4-yl]-6-imidazo[1,2-a]pyridin-7-ylpyridine-2-carbonitrile] here?
Its EC50 is 0.0171 µM.

How did the EC50 turn out when `CN1Cc2ccc(-c3nc(C#N)ccc3-c3cnn(CC4(C(F)(F)F)CC4)c3)cc2C1=O` [Example 52, 6-(2-methyl-3-oxoisoindolin-5-yl)-5-(1-((1-(trifluoromethyl)cyclopropyl)methyl)-1H-pyrazol-4-yl)picolinonitrile] was run?
Its EC50 is 0.0207 µM.

With `CC(C)(C)Cn1cc(-c2ccc(C#N)nc2-c2ccn3nc(CO)nc3c2)cn1` [Example 73, 5-[1-(2,2-dimethylpropyl)-1H-pyrazol-4-yl]-6-[2-(hydroxymethyl)[1,2,4]triazolo[1,5-a]pyridin-7-yl]pyridine-2-carbonitrile] as the compound, how does the EC50 read?
Its EC50 is 0.126 µM.

For `Cc1nc2cc(-c3nc(C#N)ccc3-c3cnn(CC(C)(F)C(C)(F)F)c3)ccc2n1C` (centres unmarked) [Example 33, 6-(1,2-dimethyl-1H-benzimidazol-5-yl)-5-[1-(2,3,3-trifluoro-2-methylbutyl)-1H-pyrazol-4-yl]pyridine-2-carbonitrile], which EC50 is on record?
The EC50 was 0.051 µM.

For `COCc1nc2cc(-c3nc(C#N)ccc3-c3cnn(CC(C)(C)C)c3)ccn2n1` [Example 105, 5-[1-(2,2-dimethylpropyl)-1H-pyrazol-4-yl]-6-[2-(methoxymethyl)[1,2,4]triazolo[1,5-a]pyridin-7-yl]pyridine-2-carbonitrile], which EC50 is on record?
The EC50 was 0.0705 µM.

How did the EC50 turn out when `Cc1nc2cc(-c3nc(C#N)ccc3-c3cnn(CC(F)C(C)(F)F)c3)ccc2n1C` (centres unmarked) [Example 32, 6-(1,2-dimethyl-1H-benzimidazol-5-yl)-5-[1-(2,3,3-trifluorobutyl)-1H-pyrazol-4-yl]pyridine-2-carbonitrile] was run?
Its EC50 is 0.0819 µM.

How did the EC50 turn out when `Cc1nc2cc(-c3ncc(F)cc3-c3cnn(CCC(C)(C)F)c3)ccc2n1C` [Example 120, 5-(5-fluoro-3-(1-(3-fluoro-3-methylbutyl)-1H-pyrazol-4-yl)pyridin-2-yl)-1,2-dimethyl-1H-benzo[d]imidazole] was run?
The EC50 was 0.401 µM.

Which EC50 does the source give for `Cc1ccc(-c2cnn(CC3(C)CCCCC3)c2)c(-c2ccc3cn(C)nc3c2)n1` [Example 2, 2-methyl-6-(6-methyl-3-{1-[(1-methylcyclohexyl)methyl]-1H-pyrazol-4-yl}pyridin-2-yl)-2H-indazole] here?
The EC50 was 0.076 µM.

How did the EC50 turn out when `Cc1cn2ccc(-c3ncccc3-c3cnn(CC(C)(C)C)c3)cc2n1` [Example 87, 7-{3-[1-(2,2-dimethylpropyl)-1H-pyrazol-4-yl]pyridin-2-yl}-2-methylimidazo[1,2-a]pyridine] was run?
Its EC50 is 0.121 µM.

How did the EC50 turn out when `Cc1ccc(-c2cnn(CC(C)C)c2)c(-c2ccc3c(c2)C(=O)N(C2CC2)C3)n1` [Example 96, 2-cyclopropyl-6-{6-methyl-3-[1-(2-methylpropyl)-1H-pyrazol-4-yl]pyridin-2-yl}-2,3-dihydro-1H-isoindol-1-one] was run?
Its EC50 is 0.197 µM.

For `Cc1nc2cc(-c3nc(C#N)ccc3-c3cnn(C[C@]4(F)C[C@@H](F)C4)c3)ccc2n1C` [Example 128, 5-(1-(((1s,3s)-1,3-difluorocyclobutyl)methyl)-1H-pyrazol-4-yl)-6-(1,2-dimethyl-1H-benzo[d]imidazol-5-yl)picolinonitrile], which EC50 is on record?
The EC50 was 0.048 µM.

With `CC(C)CCn1cc(-c2ccc(Cl)nc2-c2ccc3c(c2)C(=O)N(CC(F)(F)F)C3)cn1` [Example 111, 6-chloro-3-(1-isopentyl-1H-pyrazol-4-yl)-2-(3-oxo-2-(2,2,2-trifluoroethyl)isoindolin-5-yl)pyridin-1-ium] as the compound, how does the EC50 read?
The EC50 was 0.0402 µM.

Which EC50 does the source give for `CC(C)(Cn1cc(-c2ccc(C#N)nc2-c2ccn3ccnc3c2)cn1)C(F)F` [Example 107, 5-[1-(3,3-difluoro-2,2-dimethylpropyl)-1H-pyrazol-4-yl]-6-imidazo[1,2-a]pyridin-7-ylpyridine-2-carbonitrile] here?
Its EC50 is 0.0321 µM.

`Cc1ccc(-c2cnn(Cc3ccccc3F)c2)c(-c2ccc3c(c2)C(=O)N(C2CC2)C3)n1` [Example 13, 2-cyclopropyl-6-{3-[1-(2-fluorobenzyl)-1H-pyrazol-4-yl]-6-methylpyridin-2-yl}-2,3-dihydro-1H-isoindol-1-one] was tested. Which EC50 did it give?
The EC50 was 0.126 µM.

For `Cc1nc2cc(-c3nc(C#N)ccc3-c3cnn(CC4(C(C)(F)F)CC4)c3)ccc2n1C` [Example 62, 5-(1-{[1-(1,1-difluoroethyl)cyclo-propyl]methyl}-1H-pyrazol-4-yl)-6-(1,2-dimethyl-1H-benzimidazol-5-yl)pyridine-2-carbonitrile], which EC50 is on record?
Its EC50 is 0.0661 µM.

Which EC50 does the source give for `Cc1cn2ccc(-c3nc(C#N)ccc3-c3cnn(CC(F)(F)C(F)(F)C(F)F)c3)cc2n1` [Example 23, 5-[1-(2,2,3,3,4,4-hexafluorobutyl)-1H-pyrazol-4-yl]-6-(2-methylimidazo[1,2-a]pyridin-7-yl)pyridine-2-carbonitrile] here?
Its EC50 is 0.0423 µM.

With `FC(F)(F)C1(Cn2cc(-c3ccc(Cl)nc3-c3ccn4ccnc4c3)cn2)CC1` [Example 59, 7-[6-chloro-3-(1-{[1-(trifluoromethyl)cyclo-propyl]methyl}-1H-pyrazol-4-yl)pyridin-2-yl]imidazo[1,2-a]pyridine] as the compound, how does the EC50 read?
The EC50 was 0.0654 µM.

For `Cc1cn2ccc(-c3nc(C#N)ccc3-c3cnn(CC(C)(F)F)c3)cc2n1` [Example 20, 5-[1-(2,2-difluoropropyl)-1H-pyrazol-4-yl]-6-(2-methylimidazo[1,2-a]pyridin-7-yl)pyridine-2-carbonitrile], which EC50 is on record?
The EC50 was 0.144 µM.

For `Cc1nc2cc(-c3ncccc3-c3cnn(CC(C)(C)C(C)(F)F)c3)ccc2n1C` [Example 102, 5-{3-[1-(3,3-difluoro-2,2-dimethylbutyl)-1H-pyrazol-4-yl]pyridin-2-yl}-1,2-dimethyl-1H-benzimidazole], which EC50 is on record?
The EC50 was 0.113 µM.

`Cc1ccc(-c2cnn(CC34CC(C3)C4)c2)c(-c2ccc3c(c2)C(=O)NC3)n1` [Example 8, 6-{3-[1-(bicyclo[1.1.1]pent-1-ylmethyl)-1H-pyrazol-4-yl]-6-methylpyridin-2-yl}-2,3-dihydro-1H-isoindol-1-one] was tested. Which EC50 did it give?
The EC50 was 0.0266 µM.

How did the EC50 turn out when `CC(C)(C)Cn1ncc(-c2ccc(C#N)nc2-c2ccn3ccnc3c2)c1F` [Example 135, 5-[1-(2,2-dimethylpropyl)-5-fluoro-1H-pyrazol-4-yl]-6-imidazo[1,2-a]pyridin-7-ylpyridine-2-carbonitrile] was run?
Its EC50 is 0.0365 µM.

Which EC50 does the source give for `CC(C)CCn1cc(-c2ccc(Cl)nc2-c2ccc3c(c2)C(=O)N(Cc2ccccc2F)C3)cn1` [Example 113, 6-{6-chloro-3-[1-(3-methylbutyl)-1H-pyrazol-4-yl]pyridin-2-yl}-2-(2-fluorobenzyl)-2,3-dihydro-1H-isoindol-1-one] here?
The EC50 was 0.054 µM.

`CC1(Cn2cc(-c3ccc(C#N)nc3-c3ccn4ccnc4c3)cn2)CCC1` [Example 94, 6-imidazo[1,2-a]pyridin-7-yl-5-{1-[(1-methylcyclobutyl)methyl]-1H-pyrazol-4-yl}pyridine-2-carbonitrile] was tested. Which EC50 did it give?
The EC50 was 0.0236 µM.

With `FC(F)(F)C1(Cn2cc(-c3cc(Cl)cnc3-c3ccn4ccnc4c3)cn2)CC1` [Example 57, 7-[5-chloro-3-(1-{[1-(trifluoromethyl)cyclo-propyl]methyl}-1H-pyrazol-4-yl)pyridin-2-yl]imidazo[1,2-a]pyridine] as the compound, how does the EC50 read?
Its EC50 is 0.268 µM.

With `CC(C)C(F)(F)Cn1cc(-c2ccc(C#N)nc2-c2ccn3ccnc3c2)cn1` [Example 21, 5-[1-(2,2-difluoro-3-methylbutyl)-1H-pyrazol-4-yl]-6-imidazo[1,2-a]pyridin-7-ylpyridine-2-carbonitrile] as the compound, how does the EC50 read?
The EC50 was 0.0307 µM.

With `Cc1ccc(-c2cnn(CC3CC3(C)C)c2)c(-c2ccn3ccnc3c2)n1` (centres unmarked) [Example 109, 7-(3-{1-[(2,2-dimethylcyclopropyl)methyl]-1H-pyrazol-4-yl}-6-methylpyridin-2-yl)imidazo[1,2-a]pyridine] as the compound, how does the EC50 read?
The EC50 was 0.0759 µM.

With `CC(C)(C)Cn1cc(-c2ccc(C#N)nc2-c2ccc3cnnn3c2)cn1` [Example 84, 5-[1-(2,2-dimethylpropyl)-1H-pyrazol-4-yl]-6-[1,2,3]triazolo[1,5-a]pyridin-6-ylpyridine-2-carbonitrile] as the compound, how does the EC50 read?
The EC50 was 0.235 µM.

With `N#Cc1ccc(-c2cnn(CC3(C(F)(F)F)CC3)c2)c(-c2ccn3ccnc3c2)n1` [Example 56, 6-imidazo[1,2-a]pyridin-7-yl-5-(1-{[1-(trifluoromethyl)cyclo-propyl]methyl}-1H-pyrazol-4-yl)pyridine-2-carbonitrile] as the compound, how does the EC50 read?
The EC50 was 0.127 µM.

`Cc1ccc(-c2cnn(CCC(C)C)c2)c(-c2ccc3c(c2)CNC3)n1` [Example 75, 5-{6-methyl-3-[1-(3-methylbutyl)-1H-pyrazol-4-yl]pyridin-2-yl}-2,3-dihydro-1H-isoindole] was tested. Which EC50 did it give?
The EC50 was 0.106 µM.
